System: Mda231 cells
Test: BME cell invasion assay (Boyden chamber principle)
Assay type: cell-based
Details: 24 hours
Experimental: Representative compounds were tested for their ability to inhibit invasion of Mda231 cells. Invasive cells are a mark of metastatic tumors. The in vitro invasion assay is based on the Boyden chamber assay principle.
The 96-well BME cell invasion assay kit was used according to the manufacturers' protocol (Culturex™ catalog number: 3455-096-K). Prior to assay cells were serum starved for 18 hrs and the membrane of the top invasion chamber was coated with 50 μl of 0.83× BME solution and incubated overnight at 37° C./5% CO2. The next day cells were harvested and 40.000 cells/well in 50 μl medium without serum were plated to top chamber. 150 μl of medium with serum was added to bottom chamber. Compounds were added and cells were incubated for 24 hrs at 37° C./5% CO2. The remaining cells were assayed for standard curve.
After 24 hours, the bottom chamber was aspirated and washed twice with 200 μl wash buffer. The bottom chamber was transferred to a black assay plate. Cells migrated through the membrane are stained with Calcein-AM and measured with fluorescence spectrophotometry; 150 μl Calcein-AM/Cell dissociation solution was added and incubated at 37° C./5% CO2. After 1 hour, the plate was read at 485 nm excitation, 520 nm emission. Using standard curve, the fluorescence signal measured was converted to cell number and percent invasion was determined.

| SMILES | inhibition of cell invasion |
| --- | --- |
| CN1CCN(CCCNc2ccc3ncn4c5ccc6[nH]ncc6c5c(=O)c2c34)CC1 [(XVII)] | slightly more effective than Symadex |
| CCN(CC)CCCNc1ccc2ncn3c4ccc5[nH]ncc5c4c(=O)c1c23 [Compound (XV)] | slightly more effective than Symadex |

Source: patent US20100292231A1, “Indazole Compounds for Treating Inflammatory Disorders, Demyelinating Disorders and Cancers” (priority 2007, published 2010)
